Test: In vitro drug release assay (dialysis tube, 50 kDal cut-off)
Type: physicochemical
Details: control formulation (drug in 15% acetonitrile and 85% water), within 48 h
Experimental: An in vitro drug release assay was used to determine release profiles of umirolimus, sirolimus, and everolimus. Umirolimus-loaded liposomes were prepared as described above in EXAMPLE 1, and sirolimus-loaded and everolimus-loaded liposomes were prepared as described above in EXAMPLE 4.
For each drug, a control formulation was prepared containing 1.0 mg of drug in 5 mL of a solution containing 15% acetonitrile and 85% water. 5 mL of the control formulations and the liposomal formulations for each drug were loaded into separate dialysis tubes having a molecular weight cut-off of 50 kDal.
Each loaded dialysis tube was placed in an individual 50 mL tube containing 40 mL of release media (15% acetonitrile and 0.5% SDS). The release media in each tube was sampled after 1, 2, 5, 7, 24, 30, and 48 h and the drug concentration in the release media was determined by HPLC as described above in EXAMPLE 1. The cumulative drug release percentage versus release time was plotted for all samples. The results are shown in FIGS. 1, 2, and 3 for umirolimus, everolimus, and sirolimus, respectively.

starting amount of drug diffused out of the dialysis tubing: 67%
Substance: 40-alkoxyalkyl-rapamycin [umirolimus]

From US20170065520A1, “STABLE LIPOSOMAL FORMULATIONS OF RAPAMYCIN AND RAPAMYCIN DERIVATIVES FOR TREATING CANCER” (Manli International Ltd, priority 2015, published 2017)
